Laboratory results: patent US9463252B2, “Auristatin drug linker conjugates” (priority 2008, dated 2016)

Experiments:
[1] = tested on: 786-O; experiment: Cytotoxicity of Auristatin-Peptide-h1F6 conjugates, resazurin assay; format: cell-based, human; conditions: for IC50 786-0: Table 4
Text: (§1) The conjugates contain approximately 4 drugs per antibody.

[2] = tested on: LP-1; experiment: as above; format: cell-based, human
Text: as §1

[3] = tested on: Caki-1; experiment: as above; format: cell-based
Text: as §1

[4] = tested on: L428; experiment: as above; format: cell-based; conditions: for IC50 L428: ~4 drugs/Ab
Text: as §1

[5] = tested on: U251; experiment: as above; format: cell-based; conditions: Table 4, ~4 drugs/Ab
Text: as §1

[6] = tested on: UMRC-3; experiment: as above; format: cell-based
Text: as §1

[7] = tested on: HCT-116 (CD70−); experiment: Cytotoxicity of Auristatin-Peptide-h1F6 conjugates, CD70- control cell line; format: cell-based
Text: as §1

[8] = tested on: Karpas 299; experiment: Cytotoxicity of Auristatin-Peptide-cAC10 conjugates on CD30+ cells; format: cell-based, human; conditions: Table 6, ~4 drugs/Ab
Description: (§2) Following the procedure described in Example 57, Auristatin-Dipeptide-cAC10 antibody conjugates were evaluated on CD30+ positive cell lines, Karpas 299, L428 and L540cy. In addition, a control conjugate, cAC10-vc-PABC-MMAF, was used. […] The conjugates contain approximately 4 drugs per antibody.
(§3) Following the procedure described as Examples 57 and 58, the activities of Auristatin-Peptide-cAC10 conjugates were evaluated on CD30^+ cells, such as Karpas 299, L428, and L540cy. The activities of Auristatin-Peptide-hBU12 conjugates were evaluated on CD19^+ cells such as Ramos, SUDHL-4, and ARH-77. The activities of Auristatin-Peptide-anti-LIV-1 conjugates were evaluated on LIV-1 positive cell lines MCF-7 and SKOV-3. The activities of Auristatin-Peptide-BR96 conjugates were evaluated on Le^y positive cells H3396, RCA, and L2987. All conjugates contain approximately 4 drugs per antibody.

[9] = tested on: L540cy; experiment: as above; format: cell-based, human; conditions: Table 6, ~4 drugs/Ab
Description: as §2, §3

[10] = tested on: L428; experiment: as above; format: cell-based; conditions: Table 6, ~4 drugs/Ab
Description: as §2, §3

[11] = Tolerability (MTD) of conjugates in mice; format: in vivo, mouse; conditions: h1F6 conjugates; for tolerability at 100 mg/kg dose (in words): single dose 100 mg/kg
Description: The tolerability, measured as maximum tolerated dose (MTD), was determined in mice based on animals' weight loss after treatment. Animals were usually monitored for 14 days. A conjugate is considered to be tolerated at a determined dose if single iv treatment at such dose results in a transient weight loss of no more than 20% of initial body weight of animals and no other signs of toxicity are observed. […] AF-Met-(D)Lys and AF-Asn-(D)Lys conjugates were tolerated at doses as high as 100 mg/kg (FIG. 7). Corresponding conjugates of auristatins containing Methionine (AM) and Tryptophan (AW) at the C-terminal position of the drug were tolerated even better, up to 150 mg/kg (FIG. 8). […] Thus, the Auristatin-Dipeptide Drug Linkers provide ADCs with significant therapeutic window for therapeutic treatment (e.g., cancer).

[12] = tested on: Caki-2; experiment: Cytotoxicity of Auristatin-Peptide-h1F6 conjugates, resazurin assay; format: cell-based; conditions: Table 5; h1F6 conjugates, ~4 drugs/Ab
Description: as §1
Following the procedure described as Examples 57 and 58, Auristatin-Peptide-h1F6 conjugates were evaluated on CD70^+ cell, such as 786-O, Caki-1, Caki-2, and L428. Conjugates contain approximately 4 drugs per antibody.

[13] = Table 7, h1F6 conjugates, AF vs MMAF
[14] = Table 8, h1F6 conjugates, D vs L amino acid in second linker position
[15] = Table 9, h1F6-Drug(4) conjugates, mono- vs dipeptide linker
[16] = Table 4, h1F6 conjugates, ~4 drugs/Ab
[17] = Table 5, h1F6 conjugates, ~4 drugs/Ab

| Substance | IC50 786-0 ([1]; h1F6 conjugates, ~4 drugs/Ab) [ng/mL] | IC50 LP-1 [2, 16] | IC50 Caki-1 [3, 16] [ng/mL] | IC50 L428 ([4]; Table 4, h1F6 conjugates) [ng/mL] | IC50 U251 [5] [ng/mL] | IC50 UMRC-3 [6, 16] [ng/mL] | IC50 HCT-116 (CD70−) ([7]; Table 4, ~4 drugs/Ab) [ng/mL] | IC50 Karpas 299 [8] [ng/mL] | IC50 L540cy [9] [ng/mL] | IC50 L428 [10] [ng/mL] | further results |
| --- | --- | --- | --- | --- | --- | --- | --- | --- | --- | --- | --- |
| AF-Asparagine-(D)Lysine-diaminoethane-propionyl maleimide [AF-Asn-(D)Lys] | 19 | 417 ng/mL | 10 | 24 | 60 | 28 | >1000 | 44 | 4 | 0.1 | IC50 786-O [1, 13]: 10 ng/mL; IC50 786-O [1, 14]: 10 ng/mL; IC50 786-O [1, 15]: 10 ng/mL; IC50 LP-1 [2, 13]: 479 ng/mL; IC50 LP-1 [2, 14]: 479 ng/mL; IC50 LP-1 [2, 15]: 479 ng/mL; IC50 Caki-1 [3, 13]: 6 ng/mL; IC50 Caki-1 [3, 14]: 6 ng/mL; IC50 Caki-1 [3, 15]: 6 ng/mL; IC50 L-428 [4, 13]: 9 ng/mL; IC50 L-428 [4, 14]: 9 ng/mL; IC50 L-428 [4, 15]: 9 ng/mL; IC50 UMRC-3 [6, 13]: 32 ng/mL; IC50 UMRC-3 [6, 14]: 32 ng/mL; IC50 UMRC-3 [6, 15]: 32 ng/mL; tolerability at 100 mg/kg dose (in words) [11]: tolerated |
| AF-Asparagine-Valine-diaminoethane-propionyl-maleimide [AF-Asn-Val] | 12.6 | 174 ng/mL | 22.3 | 11.7 | 251 | 46.8 | >1000 |  |  |  |  |
| AF-Asparagine-diaminoethane-propionyl maleimide [AF-Asn] |  |  |  |  |  |  |  |  |  |  | IC50 786-O [1, 15]: 10 ng/mL; IC50 LP-1 [2, 15]: 209 ng/mL; IC50 Caki-1 [3, 15]: 6 ng/mL; IC50 L-428 [4, 15]: 9 ng/mL; IC50 UMRC-3 [6, 15]: 28 ng/mL; tolerability at 50 mg/kg dose (in words) ([11]; single dose 50 mg/kg, FIG. 15): toxic |
| AF-AsparticAcid-Valine-Diaminoethane-Propionyl-Maleimide [AF-Asp-Val] | 18 | 234 ng/mL | 25 | 18 | 407 | 54 | >1000 |  |  |  |  |
| AF-Isoleucine-Proline-diaminoethane-propionyl maleimide [AF-Ile-Pro] | 9.8 | 219 ng/mL | 9 | 5 | 45 | 16 | >1000 | 0.6 | 0.7 | 0.1 |  |
| AF-Isoleucine-Valine-diaminoethane-propionyl-maleimide [AF-Ile-Val] | 3.4 | 19 ng/mL | 3.7 | 2.5 | 44.6 | 19.5 | >1000 |  |  |  |  |
| AF-Methionine-(D)Lysine-diaminoethane-propionyl maleimide [AF-Met-(D)Lys] | 55 | >10,000 ng/mL | 25 | 1698 | 98 | 132 | >1000 | 2 | 3 | 1.5 | IC50 786-O [1, 13]: 12 ng/mL; IC50 786-O [1, 14]: 12 ng/mL; IC50 786-O [1, 15]: 12 ng/mL; IC50 LP-1 [2, 13]: >1000 ng/mL; IC50 LP-1 [2, 14]: >1000 ng/mL; IC50 LP-1 [2, 15]: >1000 ng/mL; IC50 Caki-1 [3, 13]: 9 ng/mL; IC50 Caki-1 [3, 14]: 9 ng/mL; IC50 Caki-1 [3, 15]: 9 ng/mL; IC50 L-428 [4, 13]: 158 ng/mL; IC50 L-428 [4, 14]: 158 ng/mL; IC50 L-428 [4, 15]: 158 ng/mL; IC50 UMRC-3 [6, 13]: 182 ng/mL; IC50 UMRC-3 [6, 14]: 182 ng/mL; IC50 UMRC-3 [6, 15]: 182 ng/mL |
| AF-Norvaline-(D)Aspartic Acid-diaminoethane-propionyl maleimide [AF-NorVal-(D)Asp] | 28 | 537 ng/mL | 12 | 24 | 78 | 25 | >1000 | 0.5 | 0.6 | 0.09 |  |
| AF-Phenylglycine-(D)Lysine-diaminoethane-propionyl maleimide [AF-PhenylGly-(D)Lys] | 339 | >10,000 ng/mL | 44 | 275 | 98 | 1096 | >1000 | 21 | 6 | 2 |  |
| AF-Trimethyllysine-Proline-diaminoethane-propionyl-maleimide [AF-Me3Lys-Pro] | 20 | 298 ng/mL | 11 | 24 | 78 | 30 | >1000 | 0.6 | 0.8 | 0.09 |  |
| AF-Tyrosine-(D)Aspartic Acid-diaminoethane-propionyl maleimide [AF-Tyr-(D)Asp] | 24 | 398 ng/mL | 9 | 27 | 72 | 32 | >1000 | 0.6 | 0.7 | 0.06 |  |
| AF-Tyrosine-Valine-diaminoethane-propionyl-maleimide [AF-Tyr-Val] | 3.7 | 34 ng/mL | 7.0 | 3.0 | 46.8 | 19.5 | >1000 |  |  |  |  |
| AF-β-alanine-(D)Aspartic Acid-diaminoethane-propionyl maleimide [AF-β-Ala-(D)Asp] | 525 | >10,000 ng/mL | 1585 | 1096 | 93 | 132 | >1000 | 371 | 1.6 | 0.5 |  |
| MMAF-Asparagine-(D)Lysine-diaminoethane-propionyl maleimide [MMAF-Asn-(D)Lys] |  |  |  |  |  |  |  |  |  |  | IC50 786-O [1, 13]: 9 ng/mL; IC50 LP-1 [2, 13]: 110 ng/mL; IC50 Caki-1 [3, 13]: 7 ng/mL; IC50 L-428 [4, 13]: 7 ng/mL; IC50 UMRC-3 [6, 13]: 19 ng/mL; tolerability at 100 mg/kg dose (in words) [11]: animal loss |
| vc-PABC-MMAF [reference compound] | 7 | 22 ng/mL | 3 | 7 | 10 | 14 | >1000 | 3 | 3 | 0.5 | IC50 786-O [1, 17]: 5 ng/mL; IC50 Caki-1 [3, 17]: 12 ng/mL; IC50 L428 ([4]; Table 5, h1F6 conjugates): 4 ng/mL; IC50 HCT-116 (CD70−) ([7]; Table 5, ~4 drugs/Ab): >1000 ng/mL; IC50 Caki-2 [12]: 11 ng/mL |
